We go through one molecule from patent US20230340127A1, “METHODS AND COMPOSITIONS FOR CANCER TREATMENT BY INHIBITION OF FBXO44” (Sanford Burnham Prebys Medical Discovery Institute, priority 2022, published 2023).

The test system of data set [1] is chromatin associated H3K9me3 modifications in MDA-MB-231 cells. The data set can be described thus: Immunofluorescence of chromatin associated H3K9me3 after F5446 treatment. In kind it is cell-based, human. The note with it: vehicle or F5446 for 48 hrs, IF (FIG. 10E). As for the experimental part: Immunofluorescence (IF): IF was performed to detect chromatin associated H3K9me3 in siRNA of FBXO44 or control. Briefly, cells were grown on Laminin-coated coverslips (neuVitro no. GG-12-laminin), washed twice with cold PBS, and then fixed with 4% paraformaldehyde for 20 min at 25° C. followed by permeabilization with 0.5% Triton X-100 in PBS for 5 min. Cells were fixed with chilled methanol for 5 min at −20° C. After 3×10 min washes in PBS, cells were incubated in blocking buffer (10 mM Tris-Cl [pH 7.5], 120 mM KCl, 20 mM NaCl, 0.5 mM EDTA, 0.1% Triton X-100, 10% milk, 2% BSA) overnight at 4° C. The relevant primary antibodies diluted in blocking buffer were then added. Specifically, 1:500 dilution for anti-H3K9me3 (Abcam no. ab8898). Cells were washed 3×10 min with KCMT buffer (10 mM Tris-Cl [pH 7.5], 120 mM KCl, 20 mM NaCl, 0.5 mM EDTA, 0.1% Triton X-100) and incubated with Alexa Fluor 488-labeled anti-rabbit (Thermo Fisher Scientific no. A-21441) or Alexa Fluor 594-labeled anti-mouse (Cell Signaling Technologies no. 8890) antibodies at 1:500 dilution for 1 hr at 25° C. After 3×10 min washes with KCMT buffer, cells were stained with DAPI (Thermo Fisher Scientific no. D1306), coverslips mounted with anti-fade mounting medium (Vector Laboratories no. H-1000), and slides examined by fluorescence microscopy (Nikon Inverted TE300) or confocal microscopy (Zeiss LSM 710 NLO). […]

In data set [2] the test system is HMECs and primary astrocytes. In words: Viability of normal cells after F5446 treatment. In kind it is cell-based, human. As to conditions: F5446 for 48 hrs (FIG. 9G). As for the experimental part: To assess whether this epigenetic regulatory pathway could potentially be targeted for cancer treatment, SUV39H1 and its chemical inhibitor F5446 were used to perform experiments. IF, qRT-PCR, and growth curve experiments were performed as described in previous examples. Human mammary epithelial cells (HMECs) and primary astrocytes were also used in the experiments. HMECs (Lonza, #CC-2551) were cultured in MEGM BulletKit Medium (Lonza, #CC-3150). Primary astrocytes were cultured Astrocyte Medium (ScienCell, #1801) and cells were incubated at 37° C. in 5% CO2. All cells were incubated at 37° C. in 5% CO2. The cell cultures were authenticated by short tandem repeat (STR) analysis.
To establish the potential of a therapeutic index for FBXO44/SUV39H1, the role of FBXO44/SUV39H1 in RE silencing in normal cells was investigated using human mammary epithelial cells (HMECs) or primary astrocytes. HMECs and primary astrocytes were cultured and treated with F5446 as described in example 17. Growth curve, immunoblotting, IF, ChIP experiments were performed as described in previous examples.

Data set [3] concerns 4T1 tumors. The data set can be described thus: 4T1 mammary tumors in syngeneic immunocompetent mice, F5446 plus anti-PD-1 antibody. In kind it is in vivo, mouse. How it is done: 4T1 tumor experiment: 10^5 4T1 cells were inoculated into the mammary fat pads of 6- to 8-week-old female BALB/c mice (The Jackson Laboratory). Tumor size was measured twice weekly. After 22 days, mice were euthanized and portions of each tumor processed for flow cytometry and histological analysis. For antibody treatments, mice were administered 200 μg rat IgG2a isotype control (BioXCell no. BP0089) or anti-PD-1 (BioXCell no. BP0273) antibody via i.p. injection on days 15, 17, 19, 21 and 23 post-inoculation of 4T1 cells. For combination treatments, mice were administered vehicle (10% Cremophor EL in PBS) or F5446 at 10 mg/kg body weight via i.p. injection on days 12, 14, 16, 18, 20, and 22 post-inoculation of cells and administered 200 μg rat IgG2a isotype (control) or anti-PD-1 antibody via i.p. injection on days 15, 17, 19, 21, and 23 post-inoculation of 4T1 cells. Mouse survival was monitored with tumor volume exceeding 2000 mm^3, weight loss>20%, and decreasing behavioral conditions considered as endpoints.
To investigate the effects of pharmacologically targeting SUV39H1, F5446, on tumor growth and immunotherapy response, experiments using mouse model were performed as described in previous examples. Mice were also treated with F5446. Growth curve, survival curve, IHC, and qRT-PCR experiments were performed as described in previous examples.

Each structure is given as a SMILES string.

Take `COC(=O)c1cc2c(n1S(=O)(=O)c1ccc(Cl)cc1)C(=O)C(=O)c1[nH]cc(C(=O)OCc3ccccc3)c1-2` [F5446]: the “chromatin-associated H3K9me3” value in data set [1] is “reduced”. Also, the “HMEC and astrocyte viability” value in data set [2] is reported as “minimally affected”. Moreover, the “sensitivity of 4T1 tumors to anti-PD-1 therapy” value in data set [3] (F5446 10 mg/kg i.p. combined with 200 μg anti-PD-1 antibody i.p. (FIGS. 12M-12O)) is “enhanced”. Moreover, the mouse survival result in data set [3] (F5446 combined with anti-PD-1 therapy, 4T1 tumors (FIG. 12O)) is given as “increased”.
